Results: patent publication US10913738B2 (BRISTOL-MYERS SQUIBB COMPANY, priority 2017, dated 2021)
Read-outs that look alike come from different tables or passages of the source.

What was measured:
[1] = target: T1, His-GST-TVMV-hRIPK1(1-324) (Homo sapiens, UniProt Q13546); experiment: RIPK1 HTRF Binding Assay
T1 construct: The coding region of human RIPK1(1-324) flanked by NdeI site at 5′ end; made in house; host or cells: Spodoptera frugiperda (Sf9) insect cells, baculovirus
T1 sequence (Q13546 1-324): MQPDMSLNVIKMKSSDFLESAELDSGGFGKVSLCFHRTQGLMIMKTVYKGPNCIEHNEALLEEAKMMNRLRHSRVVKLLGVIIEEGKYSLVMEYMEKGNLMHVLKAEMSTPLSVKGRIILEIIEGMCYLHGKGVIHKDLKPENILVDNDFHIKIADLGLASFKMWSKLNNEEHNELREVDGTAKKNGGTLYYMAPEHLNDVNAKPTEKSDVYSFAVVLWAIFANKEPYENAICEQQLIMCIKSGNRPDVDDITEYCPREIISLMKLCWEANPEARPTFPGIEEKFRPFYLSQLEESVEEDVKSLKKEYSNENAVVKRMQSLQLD

[2] = test system: MLKL phosphorylation in HT29-L23 human colorectal adenocarcinoma cells; experiment: MLKL Phosphorylation High-Content Assay; assay type: cell-based; conditions: Homo sapiens
In short: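 Cells incubated six hours at 37° C., then phospho-MLKL (S358) immunostained overnight at 4° C. and imaged by high-content microscopy. Phosphorylation quantified as mean circ-ring average intensity ratio; IC50 and Ymax from 4-parameter logistic fits.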

[3] = x marks IC50 class <20 nM, read-out: RIPK1 HTRF binding <20 nM
[4] = x marks IC50 class <20 nM, read-out: pMLKL cell activity <20 nM
[5] = x marks IC50 class 20-200 nM, read-out: RIPK1 HTRF binding 20-200 nM
[6] = x marks IC50 class >200 nM, read-out: pMLKL cell activity >200 nM
[7] = x marks IC50 class 20-200 nM, read-out: pMLKL cell activity 20-200 nM

Structure (SMILES)	IC50 [1, 3]	IC50 [2, 4]	IC50 [1, 5]	IC50 [2, 7]	other results
COc1nc(C)c(-c2ccn3nc(N)nc3c2)cc1C(=O)NCc1cccnc1OC1CCCC1 [Example 34, 5-{2-Amino-[1,2,4]triazolo[1,5-a]pyridin-7-yl}-N-{[2-(cyclopentyloxy)pyridin-3-yl]methyl}-2-methoxy-6-methylpyridine-3-carboxamide]	< 20 nM	< 20 nM			
COc1ncc(-c2ccn3nc(N)nc3c2)cc1NC(=O)Cc1ccccc1OC(F)(F)F [Example 417, N-(5-(2-amino-[1,2,4]triazolo[1,5-a]pyridin-7-yl)-2-methoxypyridin-3-yl)-2-(2-(trifluoromethoxy)phenyl)acetamide]			20 to 200 nM		IC50 [2, 6]: > 200 nM
COc1nc(C)c(-c2ccn3nc(N)nc3c2)cc1C(=O)NCc1cc(F)ccc1OCC1CCCC1 [Example 206, 5-{2-amino-[1,2,4]triazolo[1,5-a]pyridin-7-yl}-N-{[2-(cyclopentylmethoxy)-5-fluorophenyl]methyl}-2-methoxy-6-methylpyridine-3-carboxamide]	< 20 nM			20 to 200 nM	
Cc1ncc(-c2ccn3nc(N)nc3c2)cc1C(=O)NCCc1cccc(OC(F)(F)F)c1 [Example 227, 5-{2-amino-[1,2,4]triazolo[1,5-a]pyridin-7-yl}-2-methyl-N-{2-[3-(trifluoromethoxy)phenyl]ethyl}pyridine-3-carboxamide]			20 to 200 nM		IC50 [2, 6]: > 200 nM
COc1nc(C)c(-c2ccn3nc(N)nc3c2)cc1C(=O)NCc1cc(F)ccc1OC(F)(F)F [Example 329, 5-(2-amino-[1,2,4]triazolo[1,5-a]pyridin-7-yl)-N-(5-fluoro-2-(trifluoromethoxy)benzyl)-2-methoxy-6-methylnicotinamide]	< 20 nM			20 to 200 nM	
COc1ncc(-c2ccn3nc(N)nc3c2)cc1C(=O)NCc1cccc(OCC2CC2)c1 [Example 47, 5-{2-Amino-[1,2,4]triazolo[1,5-a]pyridin-7-yl}-N-{[3-(cyclopropylmethoxy)phenyl]methyl}-2-methoxypyridine-3-carboxamide]			20 to 200 nM		IC50 [2, 6]: > 200 nM
Cc1ncc(C(=O)NCc2cc(F)cc(F)c2OCC2CC2)cc1-c1ccn2nc(N)nc2c1 [Example 260, 5-{2-amino-[1,2,4]triazolo[1,5-a]pyridin-7-yl}-N-{[2-(cyclopropylmethoxy)-3,5-difluorophenyl]methyl}-6-methylpyridine-3-carboxamide]	< 20 nM	< 20 nM			
COc1ccc(CC2CCCN(C(=O)c3cc(-c4ccn5nc(N)nc5c4)cnc3OC)C2)cc1 (stereo not drawn) [Example 120, 7-(6-methoxy-5-{3-[(4-methoxyphenyl)methyl]piperidine-1-carbonyl}pyridin-3-yl)-[1,2,4]triazolo[1,5-a]pyridin-2-amine]			20 to 200 nM	20 to 200 nM	
Nc1nc2cc(-c3cnc(N)c(C(=O)NCc4c(F)cccc4OC4CCCC4)c3)ccn2n1 [Example 48, 2-Amino-5-{2-amino-[1,2,4]triazolo[1,5-a]pyridin-7-yl}-N-{[2-(cyclopentyloxy)-6-fluorophenyl]methyl}pyridine-3-carboxamide]	< 20 nM	< 20 nM			
COc1ncc(-c2ccn3nc(N)nc3c2)cc1C(=O)Nc1cnn(Cc2ccccc2)c1 [Example 84, 5-{2-Amino-[1,2,4]triazolo[1,5-a]pyridin-7-yl}-N-(1-benzyl-1H-pyrazol-4-yl)-2-methoxypyridine-3-carboxamide]			20 to 200 nM	20 to 200 nM	
COc1nc(C)c(-c2ccn3nc(N)nc3c2)cc1C(=O)N(C)[C@H](C)c1cc(OC(F)(F)F)ccc1F [Example 325, (R)-5-(2-amino-[1,2,4]triazolo[1,5-a]pyridin-7-yl)-N-(1-(2-fluoro-5-(trifluoromethoxy)phenyl)ethyl)-2-methoxy-N,6-dimethylnicotinamide]			20 to 200 nM	20 to 200 nM	
COc1ncc(-c2ccn3nc(N)nc3c2)cc1C(=O)NC(C)c1ccccc1OC(F)(F)F (single isomer, unassigned) [Example 38-2, 5-{2-Amino-[1,2,4]triazolo[1,5-a]pyridin-7-yl}-2-methoxy-N-{1-[2-(trifluoromethoxy)phenyl]ethyl}pyridine-3-carboxamide]					IC50 ([1]; x marks IC50 class >200 nM, read-out: RIPK1 HTRF binding >200 nM): > 200 nM; IC50 [2, 6]: > 200 nM
Cc1ncc(-c2ccn3nc(N)nc3c2)cc1C(=O)NCc1cc(F)ccc1OCC1CCCC1 [Example 20, 5-{2-Amino-[1,2,4]triazolo[1,5-a]pyridin-7-yl}-N-{[2-(cyclopentylmethoxy)-5-fluorophenyl]methyl}-2-methylpyridine-3-carboxamide]	< 20 nM			20 to 200 nM	
Nc1nc2cc(-c3cnc(N)c(C(=O)NCc4ccccc4Sc4ccccc4CO)c3)ccn2n1 [Example 62, 2-Amino-5-{2-amino-[1,2,4]triazolo[1,5-a]pyridin-7-yl}-N-[(2-{[2-(hydroxymethyl)phenyl]sulfanyl}phenyl)methyl]pyridine-3-carboxamide]	< 20 nM			20 to 200 nM	
Cc1ncc(-c2ccn3nc(N)nc3c2)cc1C(=O)NCc1cc(F)ccc1OCC(F)(F)F [Example 309, 5-(2-amino-[1,2,4]triazolo[1,5-a]pyridin-7-yl)-N-(5-fluoro-2-(2,2,2-trifluoroethoxy)benzyl)-2-methylnicotinamide]	< 20 nM				IC50 [2, 6]: > 200 nM
COc1ncc(-c2ccn3nc(N)nc3c2)cc1C(=O)NCc1ccccc1Oc1ccc(F)cc1 [Example 110, 5-{2-amino-[1,2,4]triazolo[1,5-a]pyridin-7-yl}-N-{[2-(4-fluorophenoxy)phenyl]methyl}-2-methoxypyridine-3-carboxamide]	< 20 nM	< 20 nM			
COc1ncc(-c2ccn3nc(N)nc3c2)nc1C(=O)NCc1cc(OC(F)(F)F)ccc1F [Example 384, 6-(2-amino-[1,2,4]triazolo[1,5-a]pyridin-7-yl)-N-(2-fluoro-5-(trifluoromethoxy)benzyl)-3-methoxypyrazine-2-carboxamide]			20 to 200 nM		IC50 [2, 6]: > 200 nM
[2H]C([2H])(NC(=O)c1cc(-c2ccn3nc(N)nc3c2)cnc1OC)c1cc(F)cc(F)c1OCC1CC1 [Example 88, 5-{2-amino-[1,2,4]triazolo[1,5-a]pyridin-7-yl}-N-{[2-(cyclopropylmethoxy)-3,5-difluorophenyl](deutero)methyl}-2-methoxypyridine-3-carboxamide]	< 20 nM	< 20 nM			
CCOc1ncc(-c2ccn3nc(N)nc3c2)cc1C(=O)NCc1ccccc1Sc1ccccc1CO [Example 275, 5-{2-amino-[1,2,4]triazolo[1,5-a]pyridin-7-yl}-2-ethoxy-N-[(2-{[2-(hydroxymethyl)phenyl]sulfanyl}phenyl)methyl]pyridine-3-carboxamide]	< 20 nM	< 20 nM			
COc1nc(C)c(-c2ccn3nc(N)nc3c2)cc1C(=O)NCc1cc(F)ccc1C(=O)N1CCC(F)(F)C1 [Example 381, 5-(2-amino-[1,2,4]triazolo[1,5-a]pyridin-7-yl)-N-(2-(3,3-difluoropyrrolidine-1-carbonyl)-5-fluorobenzyl)-2-methoxy-6-methylnicotinamide]	< 20 nM	< 20 nM			
Cc1ncc(-c2ccn3nc(N)nc3c2)cc1C(=O)NCc1c(F)cccc1OCC1CCCC1 [Example 15, 5-{2-Amino-[1,2,4]triazolo[1,5-a]pyridin-7-yl}-N-{[2-(cyclopentylmethoxy)-6-fluorophenyl]methyl}-2-methylpyridine-3-carboxamide]	< 20 nM	< 20 nM			
